Among the test systems are HL-60(TB) leukemia; CAKI-1 renal; CCRF-CEM leukemia; SNB-75 CNS; K-562 leukemia; NCI/ADR-RES ovarian; NCI-H522 lung; BT-549 breast; HOP-92 NSCLC; NCI-H23 lung.
What all share (test): inhibition of tumour cell growth, NCI panel, 48 h

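Assay format: 96-well plates, 48-hour exposure. GI50 marks 50% less growth. TGI is the concentration that stops growth completely.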

Take `NS(=O)(=O)c1ccc(C2C3=C(CCCC3=O)OC3=C2C(=O)c2ccccc2C3=O)cc1` (stereo not given): the GI50 with HL-60(TB) leukemia was 0.254 µM; with CAKI-1 renal it was 1.74 µM; with CCRF-CEM leukemia it was 0.383 µM; in the experiment with SNB-75 CNS, 0.259 µM; in the experiment on K-562 leukemia, 0.46 µM; in the experiment on NCI/ADR-RES ovarian, 2.43 µM. Moreover, the GI50 in the experiment on NCI-H522 lung was 0.174 µM; in the experiment on BT-549 breast, 1.12 µM; in the experiment on HOP-92 NSCLC it was 0.847 µM; in the experiment with NCI-H23 lung, 0.198 µM. Further, the TGI with HL-60(TB) leukemia is 0.559 µM; with CAKI-1 renal it was 3.2 µM; in the experiment on CCRF-CEM leukemia, 2.09 µM; with SNB-75 CNS, 1.17 µM; in the experiment on K-562 leukemia, 2.35 µM; in the experiment with NCI/ADR-RES ovarian, 14.6 µM. For the same compound, the TGI in the experiment with NCI-H522 lung is 0.563 µM; in the experiment with BT-549 breast it was 2.35 µM; with HOP-92 NSCLC it was 2.48 µM; in the experiment on NCI-H23 lung, 1.15 µM.

As for `C[C@]12CC/C(=N\N)C[C@@H]1CC[C@@H]1[C@@H]2CC[C@]2(C)/C(=N/N)CC[C@@H]12`, the GI50 in the experiment on HL-60(TB) leukemia, in the experiment with CAKI-1 renal, in the experiment on CCRF-CEM leukemia, with SNB-75 CNS, in the experiment with K-562 leukemia and in the experiment with NCI/ADR-RES ovarian was greater than 100 µM each time. Moreover, the GI50 in the experiment with NCI-H522 lung, in the experiment on BT-549 breast, in the experiment on HOP-92 NSCLC and in the experiment with NCI-H23 lung was greater than 100 µM in each case. Moreover, the TGI in the experiment with HL-60(TB) leukemia, with CAKI-1 renal, in the experiment with CCRF-CEM leukemia, with SNB-75 CNS, in the experiment on K-562 leukemia and with NCI/ADR-RES ovarian was greater than 100 µM in each case. Moreover, the TGI in the experiment with NCI-H522 lung, with BT-549 breast, in the experiment with HOP-92 NSCLC and in the experiment with NCI-H23 lung was greater than 100 µM in each case.

As to `COc1ccc(Nc2ccnc(NCCNc3ccnc4cc(Cl)ccc34)n2)cc1`, the GI50 in the experiment with HL-60(TB) leukemia was 2.48 µM; with CAKI-1 renal it was 1.73 µM; with CCRF-CEM leukemia, 1.65 µM; with SNB-75 CNS, 1.17 µM; in the experiment with K-562 leukemia, 1.32 µM; in the experiment on NCI/ADR-RES ovarian, 3.9 µM. Further, the GI50 was 2.38 µM with NCI-H522 lung, 1.86 µM with BT-549 breast, 1 µM in the experiment with HOP-92 NSCLC and 2.75 µM with NCI-H23 lung. For the same compound, the TGI worked out at 7.06 µM with HL-60(TB) leukemia; 4.57 µM in the experiment with CAKI-1 renal; 8.23 µM in the experiment on CCRF-CEM leukemia; 2.52 µM with SNB-75 CNS; 4.75 µM with K-562 leukemia; 16.9 µM in the experiment on NCI/ADR-RES ovarian. The TGI was 7.8 µM in the experiment on NCI-H522 lung, 7.01 µM in the experiment with BT-549 breast, 6.34 µM in the experiment with HOP-92 NSCLC and 14.9 µM in the experiment with NCI-H23 lung.

For the compound `N#Cc1cccc(C(=O)c2cnn(-c3ccc(F)cc3)c2N)c1`, the GI50 with HL-60(TB) leukemia was greater than 25 µM; in the experiment on CAKI-1 renal, greater than 25 µM; in the experiment on CCRF-CEM leukemia, greater than 25 µM; in the experiment with SNB-75 CNS, greater than 11.5 µM; with K-562 leukemia, greater than 25 µM; in the experiment on NCI/ADR-RES ovarian, greater than 25 µM. The GI50 in the experiment with NCI-H522 lung, in the experiment with BT-549 breast, in the experiment with HOP-92 NSCLC and in the experiment with NCI-H23 lung was greater than 25 µM each time. For the same compound, the TGI is greater than 25 µM with HL-60(TB) leukemia; greater than 25 µM in the experiment with CAKI-1 renal; greater than 25 µM in the experiment on CCRF-CEM leukemia; greater than 22.4 µM in the experiment on SNB-75 CNS; greater than 25 µM with K-562 leukemia; greater than 25 µM in the experiment on NCI/ADR-RES ovarian. Moreover, the TGI in the experiment with NCI-H522 lung, in the experiment on BT-549 breast, in the experiment with HOP-92 NSCLC and in the experiment with NCI-H23 lung was greater than 25 µM each time.

Consider `C[N+](C)([O-])CCCNc1c2ccccc2nc2cccc([N+](=O)[O-])c12`, for which the TGI in the experiment on HL-60(TB) leukemia was 4.22 µM; in the experiment with CAKI-1 renal, 11.6 µM; in the experiment on CCRF-CEM leukemia, 1.96 µM; with SNB-75 CNS it was 1.4 µM; in the experiment with K-562 leukemia, greater than 100 µM; in the experiment with NCI/ADR-RES ovarian, 75.6 µM. In addition, the TGI is 0.67 µM in the experiment on NCI-H522 lung, 2.91 µM with BT-549 breast, 0.806 µM in the experiment with HOP-92 NSCLC and 0.676 µM in the experiment with NCI-H23 lung.

As to `O=c1[nH]cnc2c1nnn2C1OC(CO)C(O)C1O` (stereo not given), the GI50 in the experiment with HL-60(TB) leukemia was 0.617 µM; in the experiment on CAKI-1 renal, 0.735 µM; in the experiment on CCRF-CEM leukemia, 0.551 µM; with SNB-75 CNS it was 2.43 µM; with K-562 leukemia, 3.97 µM; with NCI/ADR-RES ovarian, 0.835 µM. For the same compound, the GI50 in the experiment with NCI-H522 lung is 1.48 µM; with BT-549 breast, 7.77 µM; with HOP-92 NSCLC, 1.66 µM; in the experiment on NCI-H23 lung, 4.25 µM. Moreover, the TGI is greater than 43.9 µM in the experiment on HL-60(TB) leukemia; greater than 45.1 µM in the experiment on CAKI-1 renal; greater than 28 µM in the experiment on CCRF-CEM leukemia; greater than 100 µM with SNB-75 CNS; greater than 100 µM in the experiment on K-562 leukemia; greater than 31.4 µM in the experiment on NCI/ADR-RES ovarian. The TGI with NCI-H522 lung is 14 µM; in the experiment with BT-549 breast it was greater than 100 µM; in the experiment on HOP-92 NSCLC, greater than 100 µM; with NCI-H23 lung, greater than 100 µM.

Turning to `Cc1nc2cncc(C#Cc3cncc(C(=O)Nc4ccc(CN5CCN(C)CC5)c(C(F)(F)F)c4)c3)c2nc1C`, the GI50 in the experiment on HL-60(TB) leukemia was 0.237 µM; in the experiment with CAKI-1 renal, 0.438 µM; in the experiment with CCRF-CEM leukemia, 1.12 µM; in the experiment with SNB-75 CNS, 0.854 µM; in the experiment with K-562 leukemia, 0.005 µM; with NCI/ADR-RES ovarian, 1.83 µM. For the same compound, the GI50 in the experiment on NCI-H522 lung was 0.466 µM; in the experiment with BT-549 breast it was 1.72 µM; in the experiment on HOP-92 NSCLC, 0.204 µM; with NCI-H23 lung, 0.77 µM. Moreover, the TGI in the experiment with HL-60(TB) leukemia amounted to 1.38 µM; with CAKI-1 renal, 3.1 µM; in the experiment with CCRF-CEM leukemia, 12.5 µM; with SNB-75 CNS it was 3.34 µM; in the experiment with K-562 leukemia, 5.81 µM; in the experiment on NCI/ADR-RES ovarian it was 8.65 µM. Besides, the TGI was 8.21 µM in the experiment on NCI-H522 lung, 7.8 µM in the experiment on BT-549 breast, 1.13 µM in the experiment on HOP-92 NSCLC and 6.05 µM in the experiment with NCI-H23 lung.
